Experimental data from patent publication US6875760B2 (Novo Nordisk A/S, priority 1999, dated 2005).

Target: T1, cloned human glucagon receptor (Homo sapiens, UniProt P47871)
T1 construct: expressed in transfected cells; plasma membrane preparation
Test: Glucagon Binding Assay (II)
Details: not given
Method: Binding of compounds to the glucagon receptor was determined in a competition binding assay using the cloned human glucagon receptor.
The receptor inserted in the pLJ6′ expression vector using EcoRI/SSt1 restriction sites (Lok et al.) was expressed in a baby hamster kidney cell line (A3 BHK 570-25).
The homogenate was resuspended and centrifuged again. The final precipitate containing the plasma membranes was suspended in buffer and stored at −80° C. until use.
Binding assays were carried out in duplicate in polypropylene tubes or microtiter plates. The buffer used in this assay was 50 mM HEPES pH 7.4 containing 5 mM EGTA, 5 mM MgCl2 and 0.005% Tween 20. Sample (glucagon (Bachem CA) or test compounds) was added to each tube or well. Tracer (˜25.000 cpm) was diluted in buffer and was added to each tube or well. 0.5 mg freshly thawed plasma membrane protein diluted in buffer was then added in aliquots to each tube or well. Tubes or plates were incubated at 37° C. for 1 hour. Non-specific binding was determined with 10^−7 M of glucagon. Bound tracer and unbound tracer were then separated by vacuum filtration. The tubes or wells were washed twice with 0.01% Triton X-100 buffer. Scintillation fluid was added to the plates and radioactivity was quantified using a scintillation counter.

T1 sequence (P47871 26-477): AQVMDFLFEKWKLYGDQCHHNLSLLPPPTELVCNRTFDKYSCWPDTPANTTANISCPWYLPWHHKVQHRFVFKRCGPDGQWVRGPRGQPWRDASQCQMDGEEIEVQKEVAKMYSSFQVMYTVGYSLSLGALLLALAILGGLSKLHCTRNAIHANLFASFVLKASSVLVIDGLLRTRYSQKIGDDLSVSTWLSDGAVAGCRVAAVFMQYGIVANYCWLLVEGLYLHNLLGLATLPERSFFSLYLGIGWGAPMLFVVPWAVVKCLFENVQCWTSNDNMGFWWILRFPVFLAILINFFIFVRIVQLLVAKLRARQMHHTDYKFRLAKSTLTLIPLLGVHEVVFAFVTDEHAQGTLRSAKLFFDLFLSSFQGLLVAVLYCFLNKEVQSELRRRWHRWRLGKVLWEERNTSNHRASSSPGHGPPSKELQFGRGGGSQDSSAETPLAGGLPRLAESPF

Question: For `CC(C)CC1CCC(N(Cc2ccc(C(=O)NCCC(=O)O)cc2)C(=O)Nc2ccc(OC(F)(F)F)cc2)CC1` (centres unmarked), which IC50 is on record?
Answer: 0.14 µM

Same assay, conditions: plasma membranes of BHK cells expressing the receptor; read-out: Glu Bd Assay (II) IC50

Question: `CC(C)(C)C1CCC(N(Cc2ccc(C(=O)NCCC(=O)O)cc2)C(=O)CNC(=O)OCC2c3ccccc3-c3ccccc32)CC1` (centres unmarked) was tested. Which IC50 did it give?
Answer: 0.687 µM

Question: With `CC1CCC(N(Cc2ccc(C(=O)NCCC(=O)O)cc2)C(=O)Nc2ccc(-c3ccccc3)cc2)CC1` (centres unmarked) as the molecule, how does the IC50 read?
Answer: 0.516 µM

Question: Which IC50 does the source give for `COC(=O)CCNC(=O)c1ccc(CN(C(=O)Nc2cc(C(F)(F)F)cc(C(F)(F)F)c2)C2CCC(C(C)(C)C)CC2)cc1` (centres unmarked) here?
Answer: 0.101 µM

Question: With `CCCCOC(=O)c1ccc(NC(=O)N(Cc2ccc(C(=O)NCCC(=O)O)cc2)C2CCCCCC2)cc1` as the molecule, how does the IC50 read?
Answer: 0.217 µM

Question: With `CCCCOC(=O)c1ccc(NC(=O)N(Cc2ccc(C(=O)NCCC(=O)O)cc2)CC2CCCCC2)cc1` as the molecule, how does the IC50 read?
Answer: 0.264 µM

Question: `CCCCOC(=O)c1ccc(NC(=O)N(Cc2ccc(C(=O)NCCC(=O)O)cc2)C2CCC(C)CC2)cc1` (centres unmarked) was tested. Which IC50 did it give?
Answer: 0.188 µM

Question: `CCCCOC(=O)c1ccc(NC(=O)N(CCC(C)C)Cc2ccc(C(=O)NCCC(=O)O)cc2)cc1` was tested. Which IC50 did it give?
Answer: 0.254 µM

Question: With `CCCCOC(=O)c1ccc(NC(=O)N(Cc2ccc(C(=O)NCCC(=O)O)cc2)CC(C)(C)C)cc1` as the molecule, how does the IC50 read?
Answer: 0.23 µM

Question: For `CCCCOC(=O)c1ccc(NC(=O)N(Cc2ccc(C(=O)NCCC(=O)O)cc2)C2CCCC(C)C2)cc1` (centres unmarked), which IC50 is on record?
Answer: 0.278 µM

Question: Which IC50 does the source give for `O=C(O)CCNC(=O)c1ccc(CN(CCc2ccc(Cl)cc2)C(=O)Nc2ccc(OCc3ccccc3)cc2)cc1` here?
Answer: 0.4 µM

Question: Which IC50 does the source give for `CC(C)(C)C1CCC(N(Cc2ccc(C(=O)NCCC(=O)O)cc2)C(=O)Nc2cc(C(F)(F)F)cc(C(F)(F)F)c2)CC1` (centres unmarked) here?
Answer: 0.01 µM

Question: Which IC50 does the source give for `O=C(Nc1nn[nH]n1)c1ccc(CN(C(=O)Nc2cccc(I)c2)c2ccc(C3=CCCCC3)cc2)cc1` here?
Answer: 0.026 µM

Question: How did the IC50 turn out when `CC(C)(C)C1CCC(N(Cc2ccc(CNc3nn[nH]n3)cc2)C(=O)Nc2ccc(OC(F)(F)F)cc2)CC1` (mixture of isomers) [Example 579, 1-(4-tert-Butylcyclohexyl)-1-{4-[(2H-tetrazol-5-ylamino)methyl]benzyl}-3-(4-trifluoromethoxyphenyl)urea] was run?
Answer: 0.242 µM

Question: For `CC(C)(C)C1CCC(N(Cc2ccc(C(=O)NCCC(=O)O)cc2)C(=O)Nc2ccc(SC(F)(F)F)cc2)CC1` (centres unmarked) [Example 101, 3-{4-[1-(4-tert-Butylcyclohexyl)-3-(4-trifluoromethylsulfanylphenyl)ureidomethyl]benzoylamino)propionic acid], which IC50 is on record?
Answer: 0.119 µM

Question: For `CC(C)(C)C1CCC(N(Cc2ccc(C(=O)NCCC(=O)O)cc2)C(=O)Nc2ccc3ccccc3c2)CC1` (centres unmarked) [Example 102, 3-{4-[1-(4-tert-Butylcyclohexyl)-3-naphthalen-2-ylureidomethyl]benzoylamino)propionic acid], which IC50 is on record?
Answer: 0.167 µM

Same assay, conditions: screened at 1 μM; library compounds; read-out: displacement of the glucagon tracer when screened at 1 μM concentration in the glucagon binding assay II

Question: How did the inhibition at 1 µM turn out when `O=C(O)CCNC(=O)c1ccc(CN(C(=O)Nc2ccc(OC(F)(F)F)cc2)C2C[C@H]2c2ccccc2)cc1` (stereo in doubt) [Example 187, 3-{4-[1-(2-Phenylcyclopropyl)-3-(4-trifluoromethoxyphenyl)ureidomethyl]benzoylamino}propionic acid] was run?
Answer: > 50%

Question: For `O=C(O)CCNC(=O)c1ccc(CN(C(=O)Nc2ccc(Cl)c(C(F)(F)F)c2)C2C[C@H]2c2ccccc2)cc1` (stereo in doubt) [Example 188, 3-{4-[3-(4-Chloro-3-trifluoromethylphenyl)-1-(2-phenylcyclopropyl)ureidomethyl]benzoylamino}propionic acid], which inhibition at 1 µM is on record?
Answer: > 50%

Question: How did the inhibition at 1 µM turn out when `O=C(O)CCNC(=O)c1ccc(CN(C(=O)Nc2ccc(Cl)c(C(F)(F)F)c2)[C@@H](CO)CC2CCCCC2)cc1` (stereo in doubt) [Example 189, 3-{4-[3-(4-Chloro-3-trifluoromethylphenyl)-1-(2-cyclohexyl-1-hydroxymethylethyl)ureidomethyl]benzoylamino}propionic acid] was run?
Answer: > 50%

Question: `O=C(O)CCCOc1ccc(CN(C(=O)Nc2ccc(OC(F)(F)F)cc2)C2C[C@H]2c2ccccc2)cc1` (stereo in doubt) [Example 222, 4-{4-[1-(2-Phenylcyclopropyl)-3-(4-trifluoromethoxyphenyl)ureidomethyl]phenoxy}butyric acid] was tested. Which inhibition at 1 µM did it give?
Answer: > 50%

Question: `O=C(O)CCCOc1ccc(CN(C(=O)Nc2ccc(Cl)c(C(F)(F)F)c2)C2C[C@H]2c2ccccc2)cc1` (stereo in doubt) [Example 223, 4-{4-[3-(4-Chloro-3-trifluoromethylphenyl)-1-(2-phenylcyclopropyl)ureidomethyl]phenoxy}butyric acid] was tested. Which inhibition at 1 µM did it give?
Answer: > 50%

Target: T2, human glucagon receptor (Homo sapiens, UniProt P47871)
T2 construct: expressed in transfected cells; host or cells: BHK (baby hamster kidney) cells
Test: Glucagon Binding Assay (III)
Details: BHK cell membranes, WGA SPA beads, 125I-glucagon; read-out: Glu Bd Assay (III) IC50
Method in brief: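 Non-specific binding was set with 500 nM glucagon in this SPA-type binding assay using WGA beads. The receptor source was a membrane preparation, kept on ice or at 4 °C, from BHK cells transfected with the human receptor. Scintillation counts were taken after 4 hours of shaking and 8–48 hours of settling.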

T2 sequence (P47871 26-477): as above

Question: How did the IC50 turn out when `CC(C)N1C(=O)c2ccc(NC(=O)N(Cc3ccc(C(=O)NCCC(=O)O)cc3)C3CCC(C(C)(C)C)CC3)cc2C1=O` (centres unmarked) [Example 632, 3-{4-[1-(4-tert-Butylcyclohexyl)-3-(N′-isopropylphthalimid-4-yl)ureidomethyl]benzoylamino}propionic acid] was run?
Answer: 0.091 µM

Question: How did the IC50 turn out when `CCCCN1C(=O)c2ccc(NC(=O)N(Cc3ccc(C(=O)Nc4nn[nH]n4)cc3)C3CCC(C(C)(C)C)CC3)cc2C1=O` (centres unmarked) [Example 633, 4-[1-(4-tert-Butylcyclohexyl)-3-(N′-butylphthalimid-4-yl)ureidomethyl]-N-(2H-tetrazol-5-yl)benzamide] was run?
Answer: 0.019 µM

Question: For `CCCCN1C(=O)c2ccc(NC(=O)N(Cc3ccc(C(=O)NCCC(=O)O)cc3)c3ccc(C4CCCCC4)cc3)cc2C1=O` [Example 635, 3-{4-[3-(N′-Butylphthalimid-4-yl)-1-(4-cyclohexylphenyl)ureidomethyl]benzoylamino}propionic acid], which IC50 is on record?
Answer: 0.018 µM

Question: Which IC50 does the source give for `CCCCN1C(=O)c2ccc(NC(=O)N(Cc3ccc(C(=O)Nc4nn[nH]n4)cc3)c3ccc(C4CCCCC4)cc3)cc2C1=O` [Example 636, 4-[3-(N′-Butylphthalimid-4-yl)-1-(4-cyclohexylphenyl)ureidomethyl]-N-(2H-tetrazol-5-yl)benzamide] here?
Answer: 0.005 µM

Question: `CCCCN1C(=O)c2ccc(NC(=O)N(Cc3ccc(C(=O)NCCC(=O)O)cc3)C3CCC(C(C)(C)C)CC3)cc2C1=O` (centres unmarked) [Example 637, 3-{4-[1-(4-tert-Butylcyclohexyl)-3-(N′-butylphthalimid-4-yl)ureidomethyl]benzoylamino}propionic acid] was tested. Which IC50 did it give?
Answer: 0.116 µM

Question: With `O=C(Nc1nn[nH]n1)c1ccc(CN(C(=O)Nc2ccc3c(c2)C(=O)N(CC2CC2)C3=O)c2ccc(C3CCCCC3)cc2)cc1` [Example 639, 4-[1-(4-Cyclohexylphenyl)-3-(N′-[cyclopropylmethyl]phthalimid-4-yl)ureidomethyl]-N-(2H-tetrazol-5-yl)benzamide] as the molecule, how does the IC50 read?
Answer: 0.004 µM

Question: `CC(C)(C)c1ccc(N(Cc2ccc(C(=O)Nc3nn[nH]n3)cc2)C(=O)Nc2ccc3c(c2)C(=O)N(CC2CC2)C3=O)cc1` [Example 640, 4-[1-(4-tert-Butylphenyl)-3-(N′-[cyclopropylmethyl]phthalimid-4-yl)ureidomethyl]-N-(2H-tetrazol-5-yl)benzamide] was tested. Which IC50 did it give?
Answer: 0.006 µM

Question: Which IC50 does the source give for `CC(C)(C)C1CCC(N(Cc2ccc(C(=O)NCCC(=O)O)cc2)C(=O)Nc2ccc3c(c2)C(=O)N(CC2CC2)C3=O)CC1` (centres unmarked) [Example 641, 3-{4-[1-(4-tert-Butylcyclohexyl)-3-(N′-[cyclopropylmethyl]phthalimid-4-yl)ureidomethyl]benzoylamino}propionic acid] here?
Answer: 0.021 µM

Question: How did the IC50 turn out when `O=C(O)CCNC(=O)c1ccc(CN(C(=O)Nc2ccc3c(c2)C(=O)N(CC2CC2)C3=O)c2ccc(C3CCCCC3)cc2)cc1` [Example 642, 3-{4-[3-(N′-[Cyclopropylmethyl]phthalimid-4-yl)-1-(4-cyclohexylphenyl)ureidomethyl]benzoylamino}propionic acid] was run?
Answer: 0.007 µM

Question: For `CC(C)(C)c1ccc(N(Cc2ccc(C(=O)NCCC(=O)O)cc2)C(=O)Nc2ccc3c(c2)C(=O)N(CC2CC2)C3=O)cc1` [Example 643, 3-{4-[3-(N′-[Cyclopropylmethyl]phthalimid-4-yl)-1-(4-tert-butylphenyl)ureidomethyl]benzoylamino}propionic acid], which IC50 is on record?
Answer: 0.038 µM

Question: Which IC50 does the source give for `O=C(Nc1nn[nH]n1)c1ccc(CN(C(=O)Nc2ccc3c(c2)C(=O)N(CC2CC2)C3=O)c2ccc(C3=CCCCC3)cc2)cc1` [Example 644, 4-[3-(N′-[Cyclopropylmethyl]phthalimid-4-yl)-1-(4-cyclohex-1-enylphenyl)ureidomethyl]-N-(2H-tetrazol-5-yl)benzamide] here?
Answer: 0.004 µM

Question: With `O=C(O)CCNC(=O)c1ccc(CN(C(=O)Nc2ccc3c(c2)C(=O)N(CC2CC2)C3=O)c2ccc(C3=CCCCC3)cc2)cc1` [Example 645, 3-{4-[1-(4-Cyclohex-1-enylphenyl)-3-(N′-[cyclopropylmethyl]phthalimid-4-yl)ureidomethyl]benzoylamino}propionic acid] as the molecule, how does the IC50 read?
Answer: 0.007 µM

Question: `CC(c1ccc(C(=O)Nc2nn[nH]n2)cc1)N(C(=O)Nc1ccc(OC(F)(F)F)cc1)c1ccc(C(C)(C)C)cc1` (centres unmarked) [Example 646, 4-{1-[1-(4-tert-Butylphenyl)-3-(4-trifluoromethoxyphenyl)ureido]ethyl}-N-(2H-tetrazol-5-yl)benzamide] was tested. Which IC50 did it give?
Answer: 0.022 µM

Question: “(4-tert-Butylcyclohexyl)-3-(N′-[cyclopropylmethyl]phthalimid-4-yl)ureidomethyl]-N-(2H-tetrazol-5-yl)benzamide [Example 638]” was tested. Which IC50 did it give?
Answer: 0.011 µM
